The text below walks through data of paper PMC11542786, “Isoscopoletin inhibits hepatocellular carcinoma cell proliferation via regulating glycolysis-related proteins” (PLOS ONE, 2024).

Assay in all cases: microscale thermophoresis
Holding throughout (type): binding

One assay deals with T1, PGK2 (Homo sapiens, UniProt P07205).
T1 construct: labelled with DyLight 488 for MST; docking model 2paa is not the assayed protein
T1 sequence (P07205 2-417): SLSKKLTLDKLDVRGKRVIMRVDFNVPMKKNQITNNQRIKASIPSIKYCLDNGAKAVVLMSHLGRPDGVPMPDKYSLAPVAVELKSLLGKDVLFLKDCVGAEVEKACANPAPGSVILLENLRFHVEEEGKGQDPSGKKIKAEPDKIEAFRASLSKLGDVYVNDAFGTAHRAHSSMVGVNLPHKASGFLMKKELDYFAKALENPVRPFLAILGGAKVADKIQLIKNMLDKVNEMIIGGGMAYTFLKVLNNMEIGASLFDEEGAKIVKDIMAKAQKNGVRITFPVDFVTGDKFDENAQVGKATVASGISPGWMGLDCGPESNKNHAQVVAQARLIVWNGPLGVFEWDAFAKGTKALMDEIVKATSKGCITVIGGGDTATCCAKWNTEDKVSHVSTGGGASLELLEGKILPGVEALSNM

The next assay deals with T2, Hsp90α (Homo sapiens, UniProt P07900).
T2 construct: gene HSP90AA1; labelled with DyLight 488 for MST

The target of a further assay is T3, GPI (Homo sapiens, UniProt P06744).
T3 construct: labelled with DyLight 488 for MST

Another assay has as its target T4, GPD2 (Homo sapiens, UniProt P43304).
T4 construct: labelled with DyLight 488 for MST; docking model 1x0v is not the assayed protein
T4 sequence (P43304 43-727): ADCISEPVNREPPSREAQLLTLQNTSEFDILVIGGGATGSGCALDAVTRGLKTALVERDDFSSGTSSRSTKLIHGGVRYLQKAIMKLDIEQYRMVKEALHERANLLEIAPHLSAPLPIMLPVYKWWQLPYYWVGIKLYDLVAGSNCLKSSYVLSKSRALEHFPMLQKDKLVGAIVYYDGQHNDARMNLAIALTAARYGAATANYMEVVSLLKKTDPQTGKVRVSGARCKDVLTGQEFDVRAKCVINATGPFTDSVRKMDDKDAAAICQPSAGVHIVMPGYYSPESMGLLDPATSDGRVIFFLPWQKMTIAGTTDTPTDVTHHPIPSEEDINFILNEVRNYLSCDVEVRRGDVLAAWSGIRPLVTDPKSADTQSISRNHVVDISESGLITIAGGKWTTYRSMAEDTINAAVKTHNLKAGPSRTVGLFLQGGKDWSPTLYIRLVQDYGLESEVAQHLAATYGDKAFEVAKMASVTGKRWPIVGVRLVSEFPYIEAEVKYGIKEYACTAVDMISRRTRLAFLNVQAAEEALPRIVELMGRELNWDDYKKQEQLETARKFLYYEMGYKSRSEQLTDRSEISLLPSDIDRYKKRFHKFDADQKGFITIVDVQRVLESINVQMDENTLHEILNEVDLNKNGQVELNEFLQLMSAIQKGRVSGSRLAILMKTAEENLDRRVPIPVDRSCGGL

pKd: −log10 of the molar value.

With `COc1cc2oc(=O)ccc2cc1O` [Isoscopoletin], the pKd at PGK2 is 2.49; on Hsp90α, 1.28; at GPI it was 2.87; on GPD2 it was 1.87.
